Laboratory results: ChEMBL document CHEMBL1201862, “PubChem BioAssay data set” (2004)
Several values for one entry are separate records, joined by “and”; a condition that tells them apart may be missing. Identical values can stand only once.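 Grown in 96-well plates, cells were treated for 48 hours with each compound at five concentrations. Insufficient inhibition: endpoint recorded as highest concentration tested. The concentration for 50% growth inhibition is given as GI50.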 Activity calls are given as the source filed them. Rule as the data show it: active = GI50 up to about 1.1 µM and inactive = higher.

Columns and labels:
Assay in all cases: DTP human tumour cell line panel, 48 h
[1] = test system: UACC-257
[2] = test system: OVCAR-8
[3] = test system: UO-31
[4] = test system: COLO 205
[5] = test system: NCI-H522
[6] = test system: RXF 393
[7] = test system: SF-268
[8] = test system: EKVX
[9] = test system: CCRF-CEM
[10] = test system: KM12
[11] = test system: HT-29
[12] = test system: OVCAR-4
[13] = test system: SK-OV-3
[14] = test system: SF-295
[15] = test system: M14
[16] = test system: IGROV-1

| Structure (SMILES) | GI50 [1] | GI50 [2] | GI50 [3] | GI50 [4] | GI50 [5] | GI50 [6] | GI50 [7] | GI50 [8] | GI50 [9] | GI50 [10] | GI50 [11] | GI50 [12] | GI50 [13] | GI50 [14] | GI50 [15] | GI50 [16] |
| --- | --- | --- | --- | --- | --- | --- | --- | --- | --- | --- | --- | --- | --- | --- | --- | --- |
| C[C@]12CCc3nonc3C1CC[C@@H]1C2CC[C@@]2(C)C1CC[C@@H]2O (some centres not stated) | > 100 µM (inactive) | > 100 µM (inactive) | > 100 µM (inactive) | > 100 µM (inactive) | > 100 µM (inactive) | > 100 µM (inactive) | > 100 µM (inactive) | > 100 µM (inactive) | > 100 µM (inactive) | > 100 µM (inactive) | > 100 µM (inactive) | > 100 µM (inactive) | > 100 µM (inactive) | > 100 µM (inactive) | > 100 µM (inactive) | > 100 µM (inactive) |
| Cc1ccc(NC(=O)CCC(=O)C2CC(=O)CCC2=O)cc1C (configuration not stated) | > 100 µM (inactive) | > 100 µM (inactive) | > 100 µM (inactive) | > 100 µM (inactive) |  | > 100 µM (inactive) | > 100 µM (inactive) | > 100 µM (inactive) | > 100 µM (inactive) | > 100 µM (inactive) | > 100 µM (inactive) | > 100 µM (inactive) | > 100 µM (inactive) | > 100 µM (inactive) | > 100 µM (inactive) | > 100 µM (inactive) |
| CN(/N=C/c1ccnc2ccccc12)c1c([N+](=O)[O-])cc([N+](=O)[O-])cc1[N+](=O)[O-] | > 100 µM (inactive) | 98.2 µM (inactive) | 26.7 µM (inactive) | > 100 µM (inactive) | 27.6 µM (inactive) | 39.2 µM (inactive) | 61.2 µM (inactive) | 47.3 µM (inactive) | 18.3 µM (inactive) | > 100 µM (inactive) | > 100 µM (inactive) | 53.7 µM (inactive) | > 100 µM (inactive) | 76.9 µM (inactive) | 43.3 µM (inactive) | > 100 µM (inactive) |
| COC(=O)/C=C(C)/C=C/c1cc(C(C)=O)c(C)o1 | > 100 µM (inactive) | > 100 µM (inactive) | 86.9 µM (inactive) |  | > 100 µM (inactive) |  | > 100 µM (inactive) | 51.9 µM (inactive) | > 100 µM (inactive) | > 100 µM (inactive) | > 100 µM (inactive) | 94.2 µM (inactive) | > 100 µM (inactive) | > 100 µM (inactive) | > 100 µM (inactive) | > 100 µM (inactive) |
| CC(C)C(NCc1c2ccccc2[n+]([O-])c2ccccc12)C(=O)O (configuration not stated) | > 100 µM (inactive) | 70 µM (inactive) | 26.7 µM (inactive) | > 100 µM (inactive) | 34.5 µM (inactive) |  | 32.2 µM (inactive) | > 100 µM (inactive) | 35.3 µM (inactive) | 52.6 µM (inactive) | 20 µM (inactive) | 41.1 µM (inactive) | > 100 µM (inactive) | > 100 µM (inactive) | > 100 µM (inactive) | 89.1 µM (inactive) |
| COc1ccccc1OCc1nnc(SCC(=O)O)n1-c1ccccc1 | > 100 µM (inactive) | > 100 µM (inactive) | > 100 µM (inactive) | > 100 µM (inactive) | > 100 µM (inactive) |  | > 100 µM (inactive) | > 100 µM (inactive) | > 100 µM (inactive) | > 100 µM (inactive) | > 100 µM (inactive) | > 100 µM (inactive) | > 100 µM (inactive) | > 100 µM (inactive) | > 100 µM (inactive) | > 100 µM (inactive) |
| CC(=O)O[C@H]1CC[C@@]2(C)C(=CC[C@@H]3C2CC[C@]2(C)Nc4oncc4CC32)C1 (some centres not stated) | 31.7 µM (inactive) | 34.6 µM (inactive) | 18.3 µM (inactive) |  |  | 38.8 µM (inactive) |  | > 100 µM (inactive) | 4.85 µM (inactive) | 22.6 µM (inactive) | 30.1 µM (inactive) | 16.8 µM (inactive) | 96.6 µM (inactive) | 32.6 µM (inactive) | 31.8 µM (inactive) | 28.1 µM (inactive) |
| Cn1cc2ccccc2c1-c1nc(F)nc(Oc2ccc3c(c2)CC[C@@H]2C3CC[C@@]3(C)C2C[C@H](O)[C@@H]3O)n1 (some centres not stated) | 23.5 µM (inactive) | 15.8 µM (inactive) | 16.4 µM (inactive) | 17.7 µM (inactive) | 11.8 µM (inactive) | 19.4 µM (inactive) | 13.1 µM (inactive) | 17.7 µM (inactive) | 2.66 µM (inactive) | 17.7 µM (inactive) | 19.3 µM (inactive) |  | 21.9 µM (inactive) | 17.6 µM (inactive) | 15.9 µM (inactive) | 20.7 µM (inactive) |
| CN/N=C(/CC(=O)c1sc(NNC(C)=O)nc1C)C(=O)Nc1ccc(OC)cc1OC | > 100 µM (inactive) | > 100 µM (inactive) | > 100 µM (inactive) | > 100 µM (inactive) | > 100 µM (inactive) |  | > 100 µM (inactive) | 59.7 µM (inactive) | > 100 µM (inactive) | > 100 µM (inactive) | > 100 µM (inactive) | > 100 µM (inactive) |  | > 100 µM (inactive) | > 100 µM (inactive) | > 100 µM (inactive) |
| NC(=O)c1ccccc1NC(=O)C(=O)Cc1nc2ccccc2nc1O | > 100 µM (inactive) | 50 µM (inactive) | > 100 µM (inactive) | > 100 µM (inactive) | > 100 µM (inactive) | > 100 µM (inactive) | > 100 µM (inactive) | > 100 µM (inactive) | > 100 µM (inactive) | 71.8 µM (inactive) |  | > 100 µM (inactive) | > 100 µM (inactive) | > 100 µM (inactive) | > 100 µM (inactive) | > 100 µM (inactive) |
| CC(C)c1cccc(C(C)C)c1NC1=CC(=O)C(=O)c2ccccc21 | 67 µM (inactive) | > 100 µM (inactive) | > 100 µM (inactive) | > 100 µM (inactive) | 58.6 µM (inactive) | > 100 µM (inactive) | > 100 µM (inactive) | > 100 µM (inactive) | > 100 µM (inactive) | > 100 µM (inactive) | > 100 µM (inactive) |  | > 100 µM (inactive) | > 100 µM (inactive) | > 100 µM (inactive) | > 100 µM (inactive) |
| O=C(O)/C(=C/C=C/c1ccccc1)c1csc(-c2nc(/C(=C\C=C\c3ccccc3)C(=O)O)cs2)n1 | 34.9 µM (inactive) | 44.8 µM (inactive) | 18.5 µM (inactive) | 22.3 µM (inactive) |  | 25.2 µM (inactive) | 30.7 µM (inactive) | > 100 µM (inactive) | 19.7 µM (inactive) | 27.9 µM (inactive) | 38.2 µM (inactive) |  | 57.3 µM (inactive) | 31.6 µM (inactive) | 22.9 µM (inactive) | 32.7 µM (inactive) |
| Cc1ccc(C(O)/C(=N/N)c2nc3ccc([N+](=O)[O-])cc3nc2O)cc1 (configuration not stated) | > 100 µM (inactive) | > 100 µM (inactive) | 45.4 µM (inactive) | > 100 µM (inactive) | 17.8 µM (inactive) | > 100 µM (inactive) | 74.6 µM (inactive) |  | 13.5 µM (inactive) | 51.8 µM (inactive) | > 100 µM (inactive) | > 100 µM (inactive) | > 100 µM (inactive) | > 100 µM (inactive) | > 100 µM (inactive) | > 100 µM (inactive) |
| COC(=O)[C@H]1C2CC[C@@H]3C45C[C@@H](c6ccoc6)O[C@@H]4O[C@@H](O2)C31CCC5C (some centres not stated) | > 100 µM (inactive) | > 100 µM (inactive) | 68.5 µM (inactive) | > 100 µM (inactive) | 91.6 µM (inactive) |  | > 100 µM (inactive) | 92.3 µM (inactive) | 56.4 µM (inactive) | > 100 µM (inactive) | > 100 µM (inactive) | > 100 µM (inactive) | > 100 µM (inactive) | 97.5 µM (inactive) | > 100 µM (inactive) | > 100 µM (inactive) |
| C/C(COc1ccccc1)=N\NC(N)=S | > 100 µM (inactive) | > 100 µM (inactive) | > 100 µM (inactive) | > 100 µM (inactive) |  | > 100 µM (inactive) | > 100 µM (inactive) | > 100 µM (inactive) | 61.7 µM (inactive) | 68.1 µM (inactive) | 61.9 µM (inactive) | > 100 µM (inactive) | > 100 µM (inactive) | > 100 µM (inactive) | > 100 µM (inactive) | > 100 µM (inactive) |
| COc1cc([C@@H]2OCC3C(c4ccc5c(c4)OCO5)OCC32)cc(OC)c1OC (some centres not stated) |  | 81.7 µM (inactive) | > 100 µM (inactive) | > 100 µM (inactive) | 49.9 µM (inactive) | > 100 µM (inactive) | > 100 µM (inactive) | 47.1 µM (inactive) | > 100 µM (inactive) | > 100 µM (inactive) | > 100 µM (inactive) | > 100 µM (inactive) | > 100 µM (inactive) | > 100 µM (inactive) | > 100 µM (inactive) | > 100 µM (inactive) |
| CN1C(=O)CSC1=S [3-METHYL-RHODANINE] | > 100 µM (inactive) | > 100 µM (inactive) | > 100 µM (inactive) | > 100 µM (inactive) | > 100 µM (inactive) | > 100 µM (inactive) | > 100 µM (inactive) |  | > 100 µM (inactive) | > 100 µM (inactive) | > 100 µM (inactive) | > 100 µM (inactive) | > 100 µM (inactive) | > 100 µM (inactive) | > 100 µM (inactive) | > 100 µM (inactive) |
| C[C@H]1CCC/C=C/[C@@H]2C[C@H](O)C[C@H]2[C@H](O)/C=C/C(=O)O1 [BREFELDIN A] | 27.5 nM (active) and 16 nM (active) | < 12.9 nM (active) and 22.2 nM (active) | 23.2 nM (active) and < 18.3 nM (active) | 14.3 nM (active) and 16.4 nM (active) |  | 14.4 nM (active) and 13.4 nM (active) |  |  |  | 10.1 nM (active) and 10.2 nM (active) | < 10 nM (active) and 15.8 nM (active) | < 14.7 nM (active) and 24.7 nM (active) | 60.1 nM (active) and 44.1 nM (active) |  | < 16.1 nM (active) and 26.1 nM (active) |  |
